Test results: patent publication US20230087844A1, “USE OF N2-QUINCLINE OR ISOQUINOLINE SUBSTITUTED PURINE DERIVATIVES IN CANCER TREATMENT” (SHANGHAI HUAYU BIOTECHNOLOGY CO., LTD., priority 2020, published 2023)
Marks after values point to notes of the source that are not given here.

Tests used:
AKT = assay: Inhibition of AKT phosphorylation; type: biochemical
From the text: (§1) FLT3 is a class III receptor tyrosine kinase and plays an important role in hematopoiesis and lymphocyte development. […] Wang et al found over 60% of 82 leukemia cell lines were FLT3 positive (Wang Y et al., (2006) Journal of Experimental Hematology 14(3): 446-449). FLT3-internal tandem duplication (ITD) is the most commonly seen mutation in AML patients, with about 17-34% of AML patients carrying such a mutation (Jia H et al., (2018) Medical Laboratory Science and Clinics 19(5): 39). […] Thus, the compounds of the disclosure with high inhibitory effect on FLT3 function may be good candidates for leukemia treatment.

FLT3 = FLT3 (Homo sapiens, UniProt P36888); assay: Inhibition of FLT3 phosphorylation; type: biochemical
From the text: as §1

H441 = assay: MTT tumor cell proliferation, H441; type: cell-based; settings: Homo sapiens, NCI-H441; H441, Lung cancer, 72 hour
Method: (§2) as an exemplary compound of formula (I), was tested for its inhibitory effect on tumor cell proliferation in a MTT assay.
(§3) Briefly, cells at the log phase were collected, suspended in the cell culture medium at 4*10^4/ml density, and plated in 96-well plates, 90 μl per well. The plates were kept in a 5% CO2 and 37° C. incubator for 2 hours, and then added with 100 μg/ml, 10 μg/ml, 1 μg/ml, 0.1 μg/ml, 0.01 μg/ml or 0.001 μg/ml Compound A, 4 replicates for each cell at each compound concentration. DMSO was used in the positive control group, and another negative group was also set. After 72 hour incubation in the same incubator, 20 μl 5 mg/ml MTT reagent was added to each well. After another 4 hour incubation, each well was added with 100 μl SDS and further incubated for 12 hours. Absorbance at 570 nm was read in a reader, and IC50 was calculated.

Ls-174t = assay: MTT tumor cell proliferation, Ls-174t; type: cell-based; settings: Homo sapiens, LS174T, Colon cancer, 72 hour
Method: as §2, §3

HT-29 = assay: MTT tumor cell proliferation, HT-29; type: cell-based; settings: Homo sapiens; HT-29, Colon cancer, 72 hour
Method: as §2, §3

SK-BR-3 = assay: MTT tumor cell proliferation, SK-BR-3; type: cell-based; settings: Homo sapiens; SK-BR-3, Breast cancer, 72 hour
Method: as §2, §3

BT-474 = assay: MTT tumor cell proliferation, BT-474; type: cell-based; settings: Homo sapiens; BT-474, Breast cancer, 72 hour
Method: as §2, §3

MCF-7 = assay: MTT tumor cell proliferation, MCF-7; type: cell-based; settings: Homo sapiens, MCF7; MCF-7, Breast cancer, 72 hour
Method: as §2, §3

K562 = assay: MTT tumor cell proliferation, K562; type: cell-based; settings: Homo sapiens; K562, Chronic myeloid leukemia, 72 hour
Method: as §2, §3

leukemia cell lines = assay: MTT tumor cell proliferation, leukemia cell lines (summary); type: cell-based; settings: summary of Table 2
Method: as §2, §3

[1] = test system: Colon26 murine colon cancer cells; assay: Colon26 colon cancer growth in mice; type: in vivo, F1 mice; settings: D1-7; for TGI / Tumor weight: Day 8
Method: F1 mice, 18-22 g, purchased from Shanghai Bi-Kai Laboratory Animal Co., Ltd, were subcutaneously inoculated with Colon26 murine colon cancer cells (from Cell Bank, Chinese Academy of Sciences) at the right axilla. […] Tumor growth inhibition (TGI) was calculated.

MV-4-11 cells = assay: MV-4-11 AML xenograft in mice (Example 7); type: in vivo, BALB-cA nude mice; settings: D0-20; for Complete remission: number of mice, N 6
Method: Mice body weights and tumor sizes were measured twice a week. The tumor volume, T/C and TGI (Tumor growth inhibition=(average tumor volume in vehicle group-average tumor volume in administration group)/average tumor volume in vehicle group ×100%) were calculated. Mice were sacrificed on Day 21.

PI3K γ isoform = PI3K γ isoform (Homo sapiens, UniProt P48736); assay: PI3K γ isoform inhibition; settings: one of the other three isoforms
[2] = test system: SGC-7901 human gastric cancer cells; assay: SGC-7901 gastric cancer xenograft in mice; settings: D0, 3, 6, 9, 12; for T/C: D18
Method: Mice body weights and tumor sizes were measured 2 to 3 times a week. The tumor volume (V) was calculated as (length× width^2)/2. T/C (%) was calculated as (T-T0)/(C-C0)×100, wherein T and C represented the tumor volumes in the administration group and the vehicle group respectively at the end of the experiment, while T0 and C0 represented the tumor volumes in the administration group and the vehicle group respectively at the beginning of the experiment. And RTV was calculated as (Tumor volume at Day N/Tumor volume at Day 0).
BALB/cA-nude mice, 5-6 weeks old, purchased from Shanghai SLAC Laboratory Animal Co., Ltd, were subcutaneously inoculated with SGC-7901 human gastric cancer cells (from Cell Bank, Chinese Academy of Sciences).
Mice body weights and tumor sizes were measured 2 to 3 times a week. The tumor volume, T/C and RTV were calculated as described above. Mice were sacrificed on Day 18.

FLT3, sequence (P36888 27-993, species assumed): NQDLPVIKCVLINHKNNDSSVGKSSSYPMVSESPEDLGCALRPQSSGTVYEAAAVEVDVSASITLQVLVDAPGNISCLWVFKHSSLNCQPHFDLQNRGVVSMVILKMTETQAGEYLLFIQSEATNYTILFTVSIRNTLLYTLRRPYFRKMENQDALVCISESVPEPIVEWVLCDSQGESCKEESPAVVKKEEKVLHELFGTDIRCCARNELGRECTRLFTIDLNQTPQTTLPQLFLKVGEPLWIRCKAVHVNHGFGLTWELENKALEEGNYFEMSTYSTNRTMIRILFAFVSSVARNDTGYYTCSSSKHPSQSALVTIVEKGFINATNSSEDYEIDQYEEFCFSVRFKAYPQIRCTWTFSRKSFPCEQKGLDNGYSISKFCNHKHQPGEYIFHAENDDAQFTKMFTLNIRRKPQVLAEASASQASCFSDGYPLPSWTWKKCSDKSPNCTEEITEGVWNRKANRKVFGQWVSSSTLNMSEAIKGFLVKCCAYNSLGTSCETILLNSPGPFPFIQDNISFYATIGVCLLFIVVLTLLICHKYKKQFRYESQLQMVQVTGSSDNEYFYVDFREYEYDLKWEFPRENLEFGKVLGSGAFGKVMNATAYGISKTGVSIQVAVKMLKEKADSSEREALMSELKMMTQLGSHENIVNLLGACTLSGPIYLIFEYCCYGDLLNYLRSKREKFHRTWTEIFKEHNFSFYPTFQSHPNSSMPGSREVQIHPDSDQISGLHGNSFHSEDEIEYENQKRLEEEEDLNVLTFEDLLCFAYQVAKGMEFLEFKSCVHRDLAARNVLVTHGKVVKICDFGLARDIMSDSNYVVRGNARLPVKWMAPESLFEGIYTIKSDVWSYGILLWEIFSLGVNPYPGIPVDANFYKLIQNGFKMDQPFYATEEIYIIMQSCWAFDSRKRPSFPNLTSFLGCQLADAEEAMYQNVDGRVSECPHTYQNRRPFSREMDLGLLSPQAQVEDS
PI3K γ isoform, sequence (P48736 whole entry, canonical isoform): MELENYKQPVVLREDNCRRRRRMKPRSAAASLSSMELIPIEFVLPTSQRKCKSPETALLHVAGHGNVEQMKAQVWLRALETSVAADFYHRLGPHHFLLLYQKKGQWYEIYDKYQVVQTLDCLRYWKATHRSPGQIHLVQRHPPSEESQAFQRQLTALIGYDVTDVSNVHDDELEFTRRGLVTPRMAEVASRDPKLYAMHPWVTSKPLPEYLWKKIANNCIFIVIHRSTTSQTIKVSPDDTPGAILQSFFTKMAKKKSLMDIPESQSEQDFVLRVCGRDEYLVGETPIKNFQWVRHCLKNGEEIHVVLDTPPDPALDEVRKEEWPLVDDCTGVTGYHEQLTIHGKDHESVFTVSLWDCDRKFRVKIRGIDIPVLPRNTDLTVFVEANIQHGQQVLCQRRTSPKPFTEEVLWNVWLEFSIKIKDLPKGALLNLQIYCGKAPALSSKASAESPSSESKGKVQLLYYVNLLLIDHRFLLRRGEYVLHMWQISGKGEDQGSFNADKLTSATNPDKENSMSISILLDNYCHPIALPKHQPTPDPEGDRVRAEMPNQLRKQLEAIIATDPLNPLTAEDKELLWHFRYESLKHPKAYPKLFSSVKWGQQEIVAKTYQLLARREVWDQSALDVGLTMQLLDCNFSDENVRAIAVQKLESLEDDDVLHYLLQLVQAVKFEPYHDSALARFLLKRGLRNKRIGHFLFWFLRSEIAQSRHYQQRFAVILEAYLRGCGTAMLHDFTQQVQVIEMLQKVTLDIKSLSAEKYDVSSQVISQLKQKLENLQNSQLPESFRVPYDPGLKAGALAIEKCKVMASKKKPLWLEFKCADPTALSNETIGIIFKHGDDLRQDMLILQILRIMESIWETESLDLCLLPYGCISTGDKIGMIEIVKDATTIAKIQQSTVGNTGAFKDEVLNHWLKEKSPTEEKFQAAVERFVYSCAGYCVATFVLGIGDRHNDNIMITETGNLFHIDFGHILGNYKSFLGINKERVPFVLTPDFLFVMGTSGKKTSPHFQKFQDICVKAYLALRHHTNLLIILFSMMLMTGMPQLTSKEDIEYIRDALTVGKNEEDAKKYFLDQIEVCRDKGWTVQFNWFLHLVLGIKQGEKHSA

c1cnc2ccc(Nc3nc(NC4CC4)c4nc[nH]c4n3)cc2c1 [Compound A]
EC50 (AKT): ~0.1 µM
EC50 (FLT3): ~0.049 µM
IC50 (H441): 15.9 ± 9.5 µM
IC50 (Ls-174t): 5.9 ± 0.9 µM
IC50 (HT-29): 6.1 ± 0.2 µM
IC50 (SK-BR-3): 16.5 ± 0.9 µM
IC50 (BT-474): 4.4 ± 0.4 µM
IC50 (MCF-7): 26.5 ± 7.7 µM
IC50 (K562): 1.2 ± 0.1 µM
IC50 (leukemia cell lines): ≤ 1.6 µM
Body weight (without tumor) at D8 ([1]; 30 mg/kg P.O.): 21.57 g
TGI ([1]; 30 mg/kg P.O.): 31.88%
Tumor weight ([1]; 30 mg/kg P.O.): 1.39 g
Body weight (without tumor) at D8 ([1]; 60 mg/kg P.O.): 15.96 g
TGI ([1]; 60 mg/kg P.O.): 76.12%
Tumor weight ([1]; 60 mg/kg P.O.): 0.49 g
T/C (%) D21 (MV-4-11 cells; 30 mg/kg P.O.): 28%
TGI (%) D21 (MV-4-11 cells; 30 mg/kg P.O.): 72%
Tumor volume D0 (MV-4-11 cells; 30 mg/kg P.O.): 77.6 ± 3.4 mm^3
Tumor volume D21 (MV-4-11 cells; 30 mg/kg P.O.): 279.2 ± 71.8 mm^3
Complete remission (MV-4-11 cells; 30 mg/kg P.O.): 0
T/C (%) D21 (MV-4-11 cells; 60 mg/kg P.O.): 0%
TGI (%) D21 (MV-4-11 cells; 60 mg/kg P.O.): 100%
Tumor volume D0 (MV-4-11 cells; 60 mg/kg P.O.): 79.3 ± 2.6 mm^3
Tumor volume D21 (MV-4-11 cells; 60 mg/kg P.O.): 76.6 ± 46.2 mm^3
Complete remission (MV-4-11 cells; 60 mg/kg P.O.): 3
EC50, PI3K γ isoform (PI3K γ isoform): at the μM level
RTV at D18 ([2]; 15 mg/kg P.O.): 5.57 ± 2.74
Tumor volume D0 ([2]; 15 mg/kg P.O.): 162 ± 32 mm^3
Tumor volume D18 ([2]; 15 mg/kg P.O.): 845 ± 349 mm^3
T/C ([2]; 15 mg/kg P.O.): 68.2%
RTV at D18 ([2]; 30 mg/kg P.O.): 3.73 ± 1.16
Tumor volume D0 ([2]; 30 mg/kg P.O.): 197 ± 45 mm^3
Tumor volume D18 ([2]; 30 mg/kg P.O.): 701 ± 142 mm^3
T/C ([2]; 30 mg/kg P.O.): 45.7* %
RTV at D18 ([2]; 60 mg/kg P.O.): 2.58 ± 1.07
Tumor volume D0 ([2]; 60 mg/kg P.O.): 215 ± 49 mm^3
Tumor volume D18 ([2]; 60 mg/kg P.O.): 545 ± 233 mm^3
T/C ([2]; 60 mg/kg P.O.): 31.6* %
